Measured values from patent US20260356819A1, “OXOISOINDOLINYL-SUBSTITUTED […] DERIVATIVE AND USE THEREOF” (GLUETACS THERAPEUTICS (SHANGHAI) CO., LTD., priority 2023, published 2026).

Experiments:
Assay type in all cases: cell-based
Conditions in all cases: compounds at 50 nM and 500 nM
WEE1 = biological target: T1, WEE1 (Homo sapiens, UniProt P30291+Q96SW2); assay: Western blot degradation of WEE1 in hPBMCs (24 h)
T1 construct: The supernatant was aspirated as the extracted total cell protein; endogenous in cells; host or cells: human peripheral blood mononuclear cells (hPBMCs)
Method: (§1) Conventional Western blot assay was performed to evaluate the effects of the compounds of the present disclosure on the expression of target proteins in cells. • (1) Cell Seeding and Protein Harvesting: Human peripheral blood mononuclear cells (hPBMCs) at a density of 1×10^6 cells/mL were thawed according to the PBMC Recovery Protocol (Milecell Biotechnologies Inc, Shanghai). The cells were then treated with the compounds of the present disclosure (including the compounds listed in Table 1, and the Examples 1-498 compounds) at concentrations of 50 nM and 500 nM. Controls included a negative control (DMSO) and a positive control (the commercial immunomodulatory drug lenalidomide), both processed following the identical experimental protocol as the compounds of the present disclosure. After 24 hours of compounds treatment, cells were harvested and lysed in RIPA protein lysate containing protease inhibitors on ice for 30 min, followed by centrifugation. The supernatant was aspirated as the extracted total cell protein. The protein concentration of the supernatant was determined using the conventional BCA (Bicinchoninic Acid) assay. • (2) To the collected supernatant, 5×SDS sample loading buffer was added, followed by denaturation at 95 °C for 5 minutes. The denatured samples were then separated by SDS-PAGE electrophoresis on a polyacrylamide gel. Proteins were transferred to a nitrocellulose membrane (0.45 μm NC membrane), blocked with blocking buffer at room temperature for 1 hour, and subjected to antibody incubation and development procedures according to the antibody manufacturer's instructions (Cell Signaling Technology).
(§2) Half-Maximal Degradation Concentration value (the drug concentration required for degrading proteins by 50%, abbreviated as DC50) reads method: comparing the grayscale values of Western blot bands from drug-treated samples with those from blank DMSO-treated controls, and identifying the drug concentration range at which the grayscale value is half that of the DMSO-treated control bands.
(§3) DC50 values can be calculated using ImageJ software to measure grayscale values of Western blot bands from drug-treated samples. The concentration-response curve is fitted to estimate the drug concentration corresponding to half the grayscale value.
(§4) Target protein remaining (%) refers to the percentage of target protein remaining in cells after treatment with protein degrader compounds.
(§5) Calculation method for target protein remaining (%): Use ImageJ software to measure grayscale values of Western blot bands from drug (protein degrader)-treated samples. The grayscale value of drug-treated bands is divided by that of internal control protein bands, and the resulting quotient is normalized to obtain the relative percentage of remaining target protein after protein degrader treatment.
(§6) Target protein degradation rate (%)=1−target protein remaining (%).

IKZF1 = biological target: T2, IKZF1 (Homo sapiens, UniProt Q13422+Q96SW2); assay: Western blot degradation of IKZF1 in hPBMCs (24 h)
T2 construct: The supernatant was aspirated as the extracted total cell protein; endogenous in cells; host or cells: human peripheral blood mononuclear cells (hPBMCs)
T2 sequence (Q13422 whole entry): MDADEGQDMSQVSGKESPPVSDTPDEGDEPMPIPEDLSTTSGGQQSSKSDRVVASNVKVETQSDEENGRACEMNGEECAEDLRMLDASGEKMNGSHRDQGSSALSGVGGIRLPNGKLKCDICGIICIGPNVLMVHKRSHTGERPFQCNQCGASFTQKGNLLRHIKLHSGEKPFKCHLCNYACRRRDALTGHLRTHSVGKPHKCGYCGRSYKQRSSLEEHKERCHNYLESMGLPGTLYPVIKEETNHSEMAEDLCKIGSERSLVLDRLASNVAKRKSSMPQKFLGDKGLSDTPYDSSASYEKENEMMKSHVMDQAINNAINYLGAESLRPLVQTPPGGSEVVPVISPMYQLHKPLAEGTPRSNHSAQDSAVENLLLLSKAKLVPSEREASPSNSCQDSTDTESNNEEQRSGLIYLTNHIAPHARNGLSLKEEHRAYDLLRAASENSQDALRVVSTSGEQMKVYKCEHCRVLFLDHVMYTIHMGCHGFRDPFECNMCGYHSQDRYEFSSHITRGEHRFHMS
T2 sequence (Q96SW2 whole entry): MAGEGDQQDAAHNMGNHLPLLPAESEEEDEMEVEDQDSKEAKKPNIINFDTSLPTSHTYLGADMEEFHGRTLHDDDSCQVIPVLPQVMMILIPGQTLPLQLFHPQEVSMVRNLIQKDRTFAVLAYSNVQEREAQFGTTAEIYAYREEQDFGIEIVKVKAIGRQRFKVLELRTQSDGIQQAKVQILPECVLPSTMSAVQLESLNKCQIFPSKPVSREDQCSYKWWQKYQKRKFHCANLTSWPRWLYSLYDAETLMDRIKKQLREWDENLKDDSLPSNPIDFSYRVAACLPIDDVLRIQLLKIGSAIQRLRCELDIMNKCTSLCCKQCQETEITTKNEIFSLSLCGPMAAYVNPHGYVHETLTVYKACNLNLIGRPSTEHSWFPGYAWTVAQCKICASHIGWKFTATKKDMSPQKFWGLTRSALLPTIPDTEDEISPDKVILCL
T2 sequence (Q16531 whole entry partner): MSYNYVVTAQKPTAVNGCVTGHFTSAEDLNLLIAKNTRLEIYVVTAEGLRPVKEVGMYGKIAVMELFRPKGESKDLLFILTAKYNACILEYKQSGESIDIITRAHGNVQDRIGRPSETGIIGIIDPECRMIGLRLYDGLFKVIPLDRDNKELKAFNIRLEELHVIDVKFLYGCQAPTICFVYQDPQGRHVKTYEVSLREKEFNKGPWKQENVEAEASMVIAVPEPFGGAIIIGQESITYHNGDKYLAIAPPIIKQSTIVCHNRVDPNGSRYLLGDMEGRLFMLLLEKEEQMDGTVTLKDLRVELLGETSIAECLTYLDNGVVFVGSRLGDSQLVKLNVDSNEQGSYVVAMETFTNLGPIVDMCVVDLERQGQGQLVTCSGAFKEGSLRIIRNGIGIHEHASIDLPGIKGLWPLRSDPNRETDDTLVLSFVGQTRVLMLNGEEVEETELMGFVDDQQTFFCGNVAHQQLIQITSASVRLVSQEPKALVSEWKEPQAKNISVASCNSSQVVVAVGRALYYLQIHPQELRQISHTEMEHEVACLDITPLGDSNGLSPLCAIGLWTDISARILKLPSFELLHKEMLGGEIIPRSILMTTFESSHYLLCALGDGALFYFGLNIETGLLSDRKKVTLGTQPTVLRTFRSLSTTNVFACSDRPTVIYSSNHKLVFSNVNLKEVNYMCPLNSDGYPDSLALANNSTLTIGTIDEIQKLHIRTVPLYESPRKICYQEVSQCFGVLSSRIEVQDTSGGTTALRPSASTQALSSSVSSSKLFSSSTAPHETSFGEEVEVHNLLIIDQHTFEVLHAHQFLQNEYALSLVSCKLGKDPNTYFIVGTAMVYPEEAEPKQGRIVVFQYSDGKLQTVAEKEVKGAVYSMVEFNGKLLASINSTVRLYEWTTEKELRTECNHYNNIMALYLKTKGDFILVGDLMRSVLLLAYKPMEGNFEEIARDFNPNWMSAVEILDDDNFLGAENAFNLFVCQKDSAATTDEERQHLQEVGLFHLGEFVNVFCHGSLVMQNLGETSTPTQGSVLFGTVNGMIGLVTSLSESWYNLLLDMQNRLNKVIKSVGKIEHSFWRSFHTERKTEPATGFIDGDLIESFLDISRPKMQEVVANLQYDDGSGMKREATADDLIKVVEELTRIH
Method: as §1, §2, §3, §4, §5, §6

IKZF2 = biological target: T3, IKZF2 (Homo sapiens, UniProt Q96SW2+Q9UKS7); assay: Western blot degradation of IKZF2 in hPBMCs (24 h)
T3 construct: The supernatant was aspirated as the extracted total cell protein; endogenous in cells; host or cells: human peripheral blood mononuclear cells (hPBMCs)
T3 sequence (Q9UKS7 whole entry): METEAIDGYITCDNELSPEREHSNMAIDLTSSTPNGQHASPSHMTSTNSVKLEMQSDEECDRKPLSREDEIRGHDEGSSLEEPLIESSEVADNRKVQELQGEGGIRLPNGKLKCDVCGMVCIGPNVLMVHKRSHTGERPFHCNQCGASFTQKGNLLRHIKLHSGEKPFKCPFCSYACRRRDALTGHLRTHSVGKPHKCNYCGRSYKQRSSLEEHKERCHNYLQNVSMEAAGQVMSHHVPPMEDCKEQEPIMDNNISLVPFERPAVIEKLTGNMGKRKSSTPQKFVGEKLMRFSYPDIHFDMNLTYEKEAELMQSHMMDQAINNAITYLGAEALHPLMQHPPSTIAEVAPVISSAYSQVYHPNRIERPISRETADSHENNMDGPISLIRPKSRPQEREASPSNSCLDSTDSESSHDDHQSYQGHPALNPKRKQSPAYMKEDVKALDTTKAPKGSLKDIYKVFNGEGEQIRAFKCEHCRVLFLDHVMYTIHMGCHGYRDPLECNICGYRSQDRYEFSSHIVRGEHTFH
T3 sequence (Q96SW2 whole entry): as the sequence (Q96SW2 whole entry) above
T3 sequence (Q16531 whole entry partner): as the sequence (Q16531 whole entry partner) above
Method: as §1, §2, §3, §4, §5, §6

IKZF3 = biological target: T4, IKZF3 (Homo sapiens, UniProt Q96SW2+Q9UKT9); assay: Western blot degradation of IKZF3 in hPBMCs (24 h)
T4 construct: The supernatant was aspirated as the extracted total cell protein; endogenous in cells; host or cells: human peripheral blood mononuclear cells (hPBMCs)
T4 sequence (Q9UKT9 whole entry): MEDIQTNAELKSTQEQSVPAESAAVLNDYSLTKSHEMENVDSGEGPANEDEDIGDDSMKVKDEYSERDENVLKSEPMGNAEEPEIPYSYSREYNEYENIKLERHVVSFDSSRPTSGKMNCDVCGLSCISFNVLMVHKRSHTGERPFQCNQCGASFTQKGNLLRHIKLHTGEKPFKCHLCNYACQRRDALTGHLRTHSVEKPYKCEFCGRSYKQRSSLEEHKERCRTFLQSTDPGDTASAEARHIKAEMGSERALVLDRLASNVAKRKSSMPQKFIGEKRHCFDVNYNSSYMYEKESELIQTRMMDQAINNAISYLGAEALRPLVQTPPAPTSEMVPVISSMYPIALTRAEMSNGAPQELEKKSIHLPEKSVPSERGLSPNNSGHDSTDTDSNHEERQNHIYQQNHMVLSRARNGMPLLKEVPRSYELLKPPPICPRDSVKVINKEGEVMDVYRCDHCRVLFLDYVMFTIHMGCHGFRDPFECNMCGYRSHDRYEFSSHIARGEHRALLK
T4 sequence (Q96SW2 whole entry): as the sequence (Q96SW2 whole entry) above
T4 sequence (Q16531 whole entry partner): as the sequence (Q16531 whole entry partner) above
Method: as §1, §2, §3, §4, §5, §6

CK1α = biological target: T5, CK1α (Homo sapiens, UniProt P48729+Q96SW2); assay: Western blot degradation of CK1α in hPBMCs (24 h)
T5 construct: The supernatant was aspirated as the extracted total cell protein; endogenous in cells; host or cells: human peripheral blood mononuclear cells (hPBMCs)
T5 sequence (P48729 whole entry): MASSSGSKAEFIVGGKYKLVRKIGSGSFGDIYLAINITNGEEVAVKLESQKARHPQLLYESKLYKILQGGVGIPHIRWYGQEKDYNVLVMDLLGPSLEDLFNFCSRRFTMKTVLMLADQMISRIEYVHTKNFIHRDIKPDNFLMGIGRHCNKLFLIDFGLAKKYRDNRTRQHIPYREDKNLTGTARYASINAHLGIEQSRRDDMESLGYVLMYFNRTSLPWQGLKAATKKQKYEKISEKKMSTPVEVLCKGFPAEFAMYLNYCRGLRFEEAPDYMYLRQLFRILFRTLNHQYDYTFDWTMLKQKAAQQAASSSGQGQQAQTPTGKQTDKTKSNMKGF
T5 sequence (Q96SW2 whole entry): as the sequence (Q96SW2 whole entry) above
T5 sequence (Q16531 whole entry partner): as the sequence (Q16531 whole entry partner) above
Method: as §1, §2, §3, §4, §5, §6

GSPT1 = biological target: T6, GSPT1 (Homo sapiens, UniProt P15170+Q96SW2); assay: Western blot degradation of GSPT1 in hPBMCs (24 h)
T6 construct: The supernatant was aspirated as the extracted total cell protein; endogenous in cells; host or cells: human peripheral blood mononuclear cells (hPBMCs)
T6 sequence (P15170 whole entry): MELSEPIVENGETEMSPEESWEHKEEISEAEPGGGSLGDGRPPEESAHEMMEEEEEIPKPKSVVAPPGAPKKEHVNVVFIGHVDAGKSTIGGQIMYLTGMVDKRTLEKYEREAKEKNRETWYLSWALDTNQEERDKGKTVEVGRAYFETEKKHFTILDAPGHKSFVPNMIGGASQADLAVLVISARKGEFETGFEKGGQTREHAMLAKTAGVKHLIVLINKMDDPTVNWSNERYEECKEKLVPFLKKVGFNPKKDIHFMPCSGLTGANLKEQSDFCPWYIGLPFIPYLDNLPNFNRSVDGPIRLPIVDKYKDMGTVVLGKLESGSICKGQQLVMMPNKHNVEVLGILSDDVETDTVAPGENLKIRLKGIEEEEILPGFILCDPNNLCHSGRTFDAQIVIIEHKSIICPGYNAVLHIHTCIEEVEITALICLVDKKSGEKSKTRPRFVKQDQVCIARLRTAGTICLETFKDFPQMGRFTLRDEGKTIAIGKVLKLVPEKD
T6 sequence (Q96SW2 whole entry): as the sequence (Q96SW2 whole entry) above
T6 sequence (Q16531 whole entry partner): as the sequence (Q16531 whole entry partner) above
Method: as §1, §2, §3, §4, §5, §6

Row | Structure (SMILES) | WEE1 substrate protein remaining % (WEE1) | IKZF1 substrate protein remaining % (IKZF1) | IKZF2 substrate protein remaining % (IKZF2) | IKZF3 substrate protein remaining % (IKZF3) | CK1α substrate protein remaining % (CK1α) | GSPT1 substrate protein remaining % (GSPT1)
1 | O=C1CCN(N2Cc3cc(CN4CCN(Cc5ccccc5-c5ccc(Cl)cc5)CC4)ccc3C2=O)C(=O)N1 [GT-06433, 1-(5-((4-((4′-chloro-[1,1′-biphenyl]-2-yl)methyl)piperazin-1-yl)methyl)-1-oxoisoindolin-2-yl)dihydropyrimidine-2,4(1H,3H)-dione] | A (0% ≤ substrate protein remaining % ≤80%) | A (0% ≤ substrate protein remaining % ≤80%) | A (0% ≤ substrate protein remaining % ≤80%) | A (0% ≤ substrate protein remaining % ≤80%) | B (80%< substrate protein remaining % ≤100%) | A (0% ≤ substrate protein remaining % ≤80%)
2 | O=C1CCN(N2Cc3cc(CN4CCN(c5ncccc5F)CC4)ccc3C2=O)C(=O)N1 [GT-05129, 1-(5-((4-(3-fluoropyridin-2-yl)piperazin-1-yl)methyl)-1-oxoisoindolin-2-yl)dihydropyrimidine-2,4(1H,3H)-dione] | A (0% ≤ substrate protein remaining % ≤80%) | A (0% ≤ substrate protein remaining % ≤80%) | A (0% ≤ substrate protein remaining % ≤80%) | A (0% ≤ substrate protein remaining % ≤80%) | A (0% ≤ substrate protein remaining % ≤80%) | A (0% ≤ substrate protein remaining % ≤80%)
3 | O=C1CCN(N2C(=O)c3ccc(CN4CCN(c5ccncc5F)CC4)cc3C2=O)C(=O)N1 [GT-07164, 2-(2,4-dioxotetrahydropyrimidin-1(2H)-yl)-5-((4-(3-fluoropyridin-4-yl)piperazin-1-yl)methyl)isoindoline-1,3-dione] | B (80%< substrate protein remaining % ≤100%) | B (80%< substrate protein remaining % ≤100%) | A (0% ≤ substrate protein remaining % ≤80%) | B (80%< substrate protein remaining % ≤100%) | B (80%< substrate protein remaining % ≤100%) | A (0% ≤ substrate protein remaining % ≤80%)
4 | O=C1CCN(N2C(=O)c3ccc(CN4CC=C(c5ncnc6sc7c(c56)CCC7)CC4)cc3C2=O)C(=O)N1 [GT-08434, 5-((4-(6,7-dihydro-5H-cyclopenta[4,5]thieno[2,3-d]pyrimidin-4-yl)-3,6-dihydropyridin-1(2H)-yl)methyl)-2-(2,4-dioxotetrahydropyrimidin-1(2H)-yl)isoindoline-1,3-dione] | B (80%< substrate protein remaining % ≤100%) | A (0% ≤ substrate protein remaining % ≤80%) | A (0% ≤ substrate protein remaining % ≤80%) | A (0% ≤ substrate protein remaining % ≤80%) | A (0% ≤ substrate protein remaining % ≤80%) | A (0% ≤ substrate protein remaining % ≤80%)
5 | O=C1CCN(N2Cc3cc(CN4CCN(c5c[nH]c6ncccc56)CC4)ccc3C2=O)C(=O)N1 [GT-07502, 1-(5-((4-(1H-pyrrolo[2,3-b]pyridin-3-yl)piperazin-1-yl)methyl)-1-oxoisoindolin-2-yl)dihydropyrimidine-2,4(1H,3H)-dione] | A (0% ≤ substrate protein remaining % ≤80%) | A (0% ≤ substrate protein remaining % ≤80%) | B (80%< substrate protein remaining % ≤100%) | B (80%< substrate protein remaining % ≤100%) | A (0% ≤ substrate protein remaining % ≤80%) | A (0% ≤ substrate protein remaining % ≤80%)
